Test [1] concerns BT-474 human breast cancer cells. Description: Cell proliferation suppression test, BT-474 (SRB staining). The test is classed as cell-based. Conditions: BT-474 cells, incubated for 3 or 5 days, SRB protein staining, absorbance 550 nm, read-out: Cell proliferation inhibition (IC50; μM) BT-474. The method, then:
(§1) 100 μl of a suspension of HER2-expressing SK-BR-3 human breast cancer cells or 100 μl of BT-474 (2,000 cells) or 100 μl (4,000 cells) of a suspension of normal human cell fibroblast MRC-5 was sown in a 96-well microplate and cultured at 37° C. in a 5% carbonic acid gas incubator. On the following day, 100 μl of a solution of the test compound which had previously been diluted 2-fold, was added and the mixture was incubated for 3 or 5 days. The cells were fixed and washed with 5% glutaraldehyde solution and further fixed with 10% trichloroacetic acid solution, after which a 0.4% (W/V) SRB 0.4% (W/V) solution (dissolved in 1% acetic acid) was added to stain the cell protein. After the pigment solution was removed and the plate was washed with 1% acetic acid solution, 100 μl of extract (10 mM tris buffer solution) was added to extract the pigment; absorbance was measured at an absorption wavelength of 550 nm to quantify the amount of cells as protein content.
(§2) Taking the absorbance for the control group, which received no test compound solution, as 100% the ratio of the absorbance for each treatment group was determined, and the compound concentration required to achieve 50% suppression of the residual cell content relative to the control (IC50 value) was calculated.
(Sulforhodamine B stains cellular protein and so reports cell mass.)

The subject of test [2] is BT-474 human cancer cells. Description: Antitumor test in nude mouse model implanted with human cancer cells. The test is classed as in vivo. Conditions: twice each day, for 14 days, nude BALB/c female mouse, BT-474 subcutaneous, tumor volume change vs Gelucire control. The method, then:
1×10^7 BT-474 human cancer cells were suspended in Matrigel solution, and the suspension was subcutaneously transplanted to a nude BALB/c female mouse (5 weeks old). In order to enhance the take ratio of the tumor, an estrogen preparation was intramuscularly administered to a hind leg at plantation and 7 days after transplantation.
A Gelucire solution (0.3 or 1 mg/ml) of the compound of the present invention was orally administered at a dosage of 10 ml/kg, twice each day, for 14 days. During the first day and the last day that the administration was carried out, the tumor diameter was measured, and the tumor volume was calculated using the formula: tumor volume=major axis x minor axis x minor axis x(1/2). The T/C (%) was calculated as the ratio of the value obtained by subtracting the tumor volume on the last day of administration from the tumor volume on the first day of administration for the control group (to which only Gelucire was administered) and the value obtained by subtracting the tumor volume on the last day of administration from the tumor volume on the first day of administration for the treatment group.

The subject of test [3] is HER2-expressing SK-BR-3 human breast cancer cells. Nature of the test: Cell proliferation suppression test, SK-BR-3 (SRB staining). The test is classed as cell-based. Conditions: SK-BR-3 cells, incubated for 3 or 5 days, SRB protein staining, absorbance 550 nm, read-out: Cell proliferation inhibition (IC50; μM) SK-BR-3. The method, then:
as §1, §2

The test system of test [4] is normal human cell fibroblast MRC-5. Nature of the test: Cell proliferation suppression test, normal cells MRC-5 (SRB staining). Conditions: MRC5, MRC-5 normal fibroblasts, incubated for 3 or 5 days, SRB protein staining, absorbance 550 nm, read-out: Cell proliferation inhibition (IC50; μM) MRC-5. The test is classed as cell-based. Here is the method: as §1, §2

Marks after values point to notes of the source that are not given here. A value given as a limit tells only on which side of the number the result lay.

For the molecule `COc1cccc(-c2nc3cc(-c4ccccc4)cnc3[nH]2)c1` [Example 1, 2-(3-methoxyphenyl)-6-phenyl-1H-imidazo[4,5-b]pyridine], the figures for the IC50 in test [1], in test [3] and in test [4] were 0.28 µM, 0.12 µM and > 25 µM, respectively. For the same molecule, the “T/C(%) 3 mg/kg” value in test [2] (3 mg/kg orally) is 58* %. Further, the “T/C(%) 10 mg/kg” value in test [2] (10 mg/kg orally) is 31** %.
Consider `COc1ccc(Cc2nc3cc(-c4ccco4)cnc3[nH]2)cc1OC` [Example 97, 2-(3,4-dimethoxybenzyl)-6-(2-furyl)-1H-imidazo[4,5-b]pyridine], for which the IC50 in test [1] was 0.49 µM; in test [3], 0.94 µM; in test [4], > 25 µM.
For `Clc1ccc(Cc2nc3cc(-c4ccco4)cnc3[nH]2)cc1` [Example 113, 2-(4-chlorobenzyl)-6-(2-furyl)-1H-imidazo[4,5-b]pyridine], the results for the IC50 in test [1], in test [3] and in test [4] were 0.25 µM, 0.22 µM and ≥ 25 µM, respectively.
For `COc1cccc(-c2nc3ncc(-c4ccccc4)cc3n2Cc2ccccc2O)c1` [Example 157, 2-[[2-(3-methoxyphenyl)-6-phenyl-1H-imidazo[4,5-b]pyridin-1-yl]methyl]phenol] the same measures were 0.19 µM, 0.23 µM and > 25 µM.
For `COc1cccc(-c2nc3ncc(-c4ccccc4)cc3n2CC2CC2)c1` [Example 202, 1-(cyclopropylmethyl)-2-(3-methoxyphenyl)-6-phenyl-1H-imidazo[4,5-b]pyridine] the same measures were 1.1 µM, 0.55 µM and 21 µM.
For `Fc1ccc(/C=C/c2nc3cc(-c4ccco4)ccc3o2)c(F)c1` [Example 219, 2-[(E)-2-(2,4-difluorophenyl)ethenyl]-5-(2-furyl)benzoxazole] the same measures were 0.83 µM, 0.14 µM and > 25 µM.
